# Laboratory results from PubChem BioAssay AID1963825 (Molecular Pharmacology Branch, DTP, NCI, 2024).
# Experiment: Anticancer human tumor 997537-175-T-J1-PDC patient-derived colon adenocarcinoma cell line growth inhibition [POLQ]
# Conditions: 997537-175-T-J1-PDC complex spheroid viability, combination with POLQ inhibitors; for IC50: curve of first compound; for viability, T/C: stronger effect = lower value
# Summary of the method: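 Three-cell-type spheroids modelling solid tumor plus stroma served as the readout system; POL inhibitors were tested individually and in combination, concentration ranges set by clinical Cmax where known.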
# [1] = second compound 0.0316 µM, first compound 0.00316 µM
# [2] = second compound 0.0316 µM, first compound 0.01 µM
# [3] = second compound 0.0316 µM, first compound 0.0316 µM
# [4] = second compound 0.0316 µM, first compound 0.1 µM
# [5] = second compound 0.0316 µM, first compound 0.316 µM
# [6] = second compound 0.0316 µM, first compound 1 µM
# [7] = second compound 0.1 µM, first compound 0.00316 µM
# [8] = second compound 0.1 µM, first compound 0.01 µM
# [9] = second compound 0.1 µM, first compound 0.0316 µM
# [10] = second compound 0.1 µM, first compound 0.1 µM
# [11] = second compound 0.1 µM, first compound 0.316 µM
# [12] = second compound 0.1 µM, first compound 1 µM
# [13] = second compound 0.316 µM, first compound 0.00316 µM
# [14] = second compound 0.316 µM, first compound 0.01 µM
# [15] = second compound 0.316 µM, first compound 0.0316 µM
# [16] = second compound 0.316 µM, first compound 0.1 µM
# [17] = second compound 0.316 µM, first compound 0.316 µM
# [18] = second compound 0.316 µM, first compound 1 µM
# [19] = second compound 1 µM, first compound 0.00316 µM
# [20] = second compound 1 µM, first compound 0.01 µM
# [21] = second compound 1 µM, first compound 0.0316 µM
# [22] = second compound 1 µM, first compound 0.1 µM
# [23] = second compound 1 µM, first compound 0.316 µM
# [24] = second compound 1 µM, first compound 1 µM
# [25] = second compound 3.16 µM, first compound 0.00316 µM
# [26] = second compound 3.16 µM, first compound 0.01 µM
# [27] = second compound 3.16 µM, first compound 0.0316 µM
# [28] = second compound 3.16 µM, first compound 0.1 µM
# [29] = second compound 3.16 µM, first compound 0.316 µM
# [30] = second compound 3.16 µM, first compound 1 µM
# [31] = second compound 10 µM, first compound 0.00316 µM
# [32] = second compound 10 µM, first compound 0.01 µM
# [33] = second compound 10 µM, first compound 0.0316 µM
# [34] = second compound 10 µM, first compound 0.1 µM
# [35] = second compound 10 µM, first compound 0.316 µM
# [36] = second compound 10 µM, first compound 1 µM
# 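Also: luminescence signal used as a surrogate for viable cells; spheroids exposed to drugs for seven days before readout.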
smiles,measurement,setting,value
C=CCn1c(=O)c2cnc(Nc3ccc(N4CCN(C)CC4)cc3)nc2n1-c1cccc(C(C)(C)O)n1 + COC1C(OC(N)=O)C(O)C(Oc2ccc3c(O)c(NC(=O)c4ccc(O)c(CC=C(C)C)c4)c(=O)oc3c2C)OC1(C)C,IC50,second compound 0.0316 µM,> 1 µM
same,IC50,second compound 0.1 µM,> 1 µM
same,IC50,second compound 0.316 µM,> 1 µM
same,IC50,second compound 1 µM,> 1 µM
same,IC50,second compound 3.16 µM,> 1 µM
same,IC50,second compound 10 µM,> 1 µM
same,"viability, T/C",[1],92.8%
same,"viability, T/C",[2],102%
same,"viability, T/C",[3],105%
same,"viability, T/C",[4],92.1%
same,"viability, T/C",[5],105%
same,"viability, T/C",[6],71%
same,"viability, T/C",[7],115%
same,"viability, T/C",[8],106%
same,"viability, T/C",[9],91.9%
same,"viability, T/C",[10],92.2%
same,"viability, T/C",[11],81.7%
same,"viability, T/C",[12],66.2%
same,"viability, T/C",[13],88.5%
same,"viability, T/C",[14],101%
same,"viability, T/C",[15],103%
same,"viability, T/C",[16],103%
same,"viability, T/C",[17],92.5%
same,"viability, T/C",[18],56.5%
same,"viability, T/C",[19],103%
same,"viability, T/C",[20],98.6%
same,"viability, T/C",[21],98.2%
same,"viability, T/C",[22],90.3%
same,"viability, T/C",[23],102%
same,"viability, T/C",[24],87.8%
same,"viability, T/C",[25],115%
same,"viability, T/C",[26],93.9%
same,"viability, T/C",[27],96.6%
same,"viability, T/C",[28],99.1%
same,"viability, T/C",[29],90.2%
same,"viability, T/C",[30],64.1%
same,"viability, T/C",[31],98%
same,"viability, T/C",[32],82.5%
same,"viability, T/C",[33],93.3%
same,"viability, T/C",[34],81.4%
same,"viability, T/C",[35],78.5%
same,"viability, T/C",[36],56.4%
CCc1c2c(nc3ccc(O)cc13)-c1cc3c(c(=O)n1C2)COC(=O)[C@]3(O)CC + COC1C(OC(N)=O)C(O)C(Oc2ccc3c(O)c(NC(=O)c4ccc(O)c(CC=C(C)C)c4)c(=O)oc3c2C)OC1(C)C,IC50,second compound 0.0316 µM,0.0203 µM
same,IC50,second compound 0.1 µM,0.0194 µM
same,IC50,second compound 0.316 µM,0.0197 µM
same,IC50,second compound 1 µM,0.0153 µM
same,IC50,second compound 3.16 µM,0.0186 µM
same,IC50,second compound 10 µM,0.0131 µM
same,"viability, T/C",[1],73.2%
same,"viability, T/C",[2],79.5%
same,"viability, T/C",[3],33.5%
same,"viability, T/C",[4],22.7%
same,"viability, T/C",[5],4.91%
same,"viability, T/C",[6],4.67%
same,"viability, T/C",[7],72.3%
same,"viability, T/C",[8],74.8%
same,"viability, T/C",[9],32.9%
same,"viability, T/C",[10],14.3%
same,"viability, T/C",[11],7.35%
same,"viability, T/C",[12],6.22%
same,"viability, T/C",[13],78%
same,"viability, T/C",[14],73%
same,"viability, T/C",[15],33.8%
same,"viability, T/C",[16],14.3%
same,"viability, T/C",[17],6.7%
same,"viability, T/C",[18],6.93%
same,"viability, T/C",[19],88.8%
same,"viability, T/C",[20],60.1%
same,"viability, T/C",[21],32.1%
same,"viability, T/C",[22],19.2%
same,"viability, T/C",[23],6.28%
same,"viability, T/C",[24],5.11%
same,"viability, T/C",[25],88.9%
same,"viability, T/C",[26],74%
same,"viability, T/C",[27],29.4%
same,"viability, T/C",[28],11.4%
same,"viability, T/C",[29],7.04%
same,"viability, T/C",[30],7.5%
same,"viability, T/C",[31],63.9%
same,"viability, T/C",[32],57.9%
same,"viability, T/C",[33],26.3%
same,"viability, T/C",[34],15%
same,"viability, T/C",[35],6.46%
same,"viability, T/C",[36],9.61%
